Read-outs that look alike come from different tables or passages of the source.
Columns and labels:
[1] = system: haploid germinated maize seedlings
Text: An exemplary cycloalkene, 1,2,3-Trimethoxy-4-((1S,6R)-6-nitro-cyclohex-3-enyl)-benzene, designated as compound 1 was used to determine double haploid efficiency, doubling rate by a coleoptile tip cutting, seedling soaking method. […] Data provided in Tables 1, 2 and 3 were generated using haploid seeds obtained through cross pollination of a maize line of interest with an inducer maize line.
The resulting maize seeds were sorted based on marker gene color.
Coleoptile tips in maize seedlings were cut and the seedlings were soaked in various chromosome doubling agents as shown in Table 1. Haploid maize seeds were germinated and the coleoptile tips were excised (1-2 mm). Seedlings that survived were transplanted and grown until tassels and silk formed. Plants that produced tassels and silk were self-pollinated. Seeds produced form the self-pollination were visually assessed for the marker to identify them as double haploid (dihaploid).

[2] = system: germinated haploid maize seedlings in soil; assay: Chromosome doubling by foliar spray treatment at V1-V3 stage; assay type: in vivo
Procedure: Haploid maize seeds were planted in Sun Gro MetroMix® 306 planting mixture, which typically has a pH of 6.0 to 6.8 and an organic matter content of about 30 percent, in 72-well, plastic propagation flats (Dillen Products; Middlefield Ohio). When required to ensure good germination and healthy plants, a fungicide treatment and/or other chemical or physical treatment was applied. The plants were grown in a greenhouse with an approximate 15 hour photoperiod which was maintained at about 23-29° C. during the day and 22-28° C. during the night until they reached the V1-V3 growth stage. Nutrients and water were added on a regular basis and supplemental lighting was provided with overhead metal halide 1000-Watt lamps as necessary.
A weighed amount of compound 1, determined by the rate to be tested, was dissolved in 1.2 mL of dimethyl sulfoxide (DMSO) to obtain concentrated stock solutions. […] The concentrated stock solutions obtained were diluted with 10.8 mL of an aqueous mixture containing 1.25% v/v (volume/volume) Agri-dex Crop Oil Concentrate. Compound requirements are based upon a 12 mL application volume at a rate of 187 L/ha. Formulated compounds were applied to the plant material with an overhead Mandel track sprayer equipped with a 8002E nozzle calibrated to deliver 187 L/ha over an application area of 0.503 square meters at a spray height of 18 inches (43 cm) above the average plant canopy height. Control plants were sprayed in the same manner with the solvent blank.
The treated plants and control plants were placed in a greenhouse as described above and watered by sub-irrigation to prevent wash-off of the test compounds. Approximately 14 days after treatment, the treated plants were transplanted to individual pots containing Sun Gro MetroMix® 306. Plants that produced tassels and silk were then self-pollinated to obtain dihaploid seed.
Table 3 illustrates the results of doubling rate after spray treatment with the chemicals of interest. […] The spray treated plant tassels and silks were synchronized well and the plants shed more pollen.

[3] = system: rats; assay: Dermal toxicity on rats; assay type: in vivo, rat; conditions: rats at 200 mg/kg
[4] = system: rabbit; assay: Eye irritation; assay type: in vivo; conditions: dose of about 100 mg/animal
[5] = Acute mammalian toxicity LD50 (rat); conditions: in vivo
[6] = system: haploid maize seedlings; assay: Chromosome doubling by seedling soaking, plants transplanted into the field; assay type: in vivo
Procedure: The procedure listed in example 1 was utilized to treat maize seedlings that were subsequently transplanted into the field. Seedlings that survived the transplanting were grown to maturity. Plants that produced tassels and silk were self-pollinated. […] For the cycloalkene treatment, 25 μM and 100 μM concentrations of compound 1 was used.

[7] = system: rat; conditions: cited from earlier work
[8] = seedling soak, rate 5 μM, TP = transplanted
[9] = seedling soak, rate 25 μM, TP = transplanted
[10] = seedling soak, rate 125 μM, TP = transplanted
[11] = seedling soak, rate cell empty in table, colchicine at 0.06% w/v

For `C#CC(C)(C)NC(=O)c1cc(Cl)cc(Cl)c1` [Pronamide, pronamide], the “% DR (doubling rate: No. plants with pollen and silk/No. of plants left * 100)” value ([1]; seedling soak, rate 5 μM) was 44.5%, the No. plants alive ([1]; seedling soak, rate 5 μM) was 41 and the No. plants dead ([1]; seedling soak, rate 5 μM) was 23. The “No. plants with pollen & silks” value ([1]; seedling soak, rate 5 μM) was 12, the “No. plants dead after TP” value [1, 8] was 3 and the No. plants alive ([1]; seedling soak, rate 25 μM) was 13. The No. plants dead ([1]; seedling soak, rate 25 μM) was 51, the “No. plants with pollen & silks” value ([1]; seedling soak, rate 25 μM) was 2 and the “No. plants dead after TP” value [1, 9] was 1. The No. plants alive ([1]; seedling soak, rate 125 μM) was 2, the No. plants dead ([1]; seedling soak, rate 125 μM) was 62 and the “No. plants dead after TP” value [1, 10] was 0. The “# plants dead after treatment” value ([2]; spray, rate 35 g ai/ha) was 0, the “# plants w/ pollen and silk” value ([2]; spray, rate 35 g ai/ha) was 5 and the “% DR (doubling rate)” value ([2]; spray, rate 35 g ai/ha) was 27.8%. The “# plants dead after treatment” value ([2]; spray, rate 140 g ai/ha) was 0, the “# plants w/ pollen and silk” value ([2]; spray, rate 140 g ai/ha) was 3 and the “% DR (doubling rate)” value ([2]; spray, rate 140 g ai/ha) was 16.7%.

With `COc1ccc([C@@H]2CC=CC[C@H]2[N+](=O)[O-])c(OC)c1OC` [Compound 1, 1,2,3-Trimethoxy-4-((1S,6R)-6-nitro-cyclohex-3-enyl)-benzene] the dermal toxicity [3] was “No dermal toxicity was observed”, the “Eye irritation: time to resolution of corneal and iridal effects” value [4] was at most 48 h and the “Eye irritation: animals with corneal and iridal effects” value ([4]; at 24 hours) was 1 of 3 animals showed corneal and iridal effects. For the same compound, the No. plants alive ([1]; maize, in vivo, 5 μM) was 56, the No. plants dead ([1]; maize, in vivo, 5 μM) was 10 and the “No. plants dead after TP” value ([1]; maize, in vivo, 5 μM) was 2. The No. plants alive ([1]; maize, in vivo, 25 μM) was 46, the No. plants dead ([1]; maize, in vivo, 25 μM) was 20 and the “No. plants dead after TP” value ([1]; maize, in vivo, 25 μM) was 2. For the same compound, the No. plants alive ([1]; maize, in vivo, 125 μM) was 29, the No. plants dead ([1]; maize, in vivo, 125 μM) was 34 and the “No. plants dead after TP” value ([1]; maize, in vivo, 125 μM) was 2. For the same compound, the mortality rate ([1]; seedling soak, 5 μM (10/66*100)) was 15.1%, the mortality rate ([1]; seedling soak, 25 μM) was 30.3% and the “% DR (doubling rate: No. plants with pollen and silk/No. of plants left * 100)” value ([1]; seedling soak, rate 5 μM) was 53.3%. The “No. plants with pollen & silks” value ([1]; seedling soak, rate 5 μM) was 24, the “% DR (doubling rate: No. plants with pollen and silk/No. of plants left * 100)” value ([1]; seedling soak, rate 5 μM, listed as compound 1) was “about 53%” and the “% DR (doubling rate: No. plants with pollen and silk/No. of plants left * 100)” value ([1]; seedling soak, rate 25 μM) was 62.5%. The “No. plants with pollen & silks” value ([1]; seedling soak, rate 25 μM) was 20, the “% DR (doubling rate: No. plants with pollen and silk/No. of plants left * 100)” value ([1]; seedling soak, rate 125 μM) was 76.5% and the “No. plants with pollen & silks” value ([1]; seedling soak, rate 125 μM) was 13. The LD50 [5] was at least 500 mg/kg, the “# plants dead after treatment” value ([2]; maize, in vivo) was 0 and the “# plants w/ pollen and silk” value ([2]; spray, rate 70 g ai/ha) was 6. For the same compound, the “% DR (doubling rate)” value ([2]; spray, rate 70 g ai/ha) was 31.2%, the “# plants w/ pollen and silk” value ([2]; spray, rate 280 g ai/ha) was 12 and the “% DR (doubling rate)” value ([2]; spray, rate 280 g ai/ha) was 46.2%. The “% DH pollination success” value ([6]; 25 μM) was 90%, the “% haploid maize plants pollinated (doubling rate)” value (“% haploid maize plants pollinated” for short) ([6]; 25 μM) was 67.79% and the “plants that had doubled haploid ears” value ([6]; 25 μM, out of 40 pollinated maize haploid plants) was 36. For the same compound, the “% DH pollination success” value ([6]; 100 μM) was 62.5%, the “% haploid maize plants pollinated” value ([6]; 100 μM) was 51.06% and the “plants that had doubled haploid ears” value ([6]; 100 μM, out of 24 pollinated haploid maize plants) was 15.

For `CC(C)OC(=O)Nc1cccc(Cl)c1` [Chlorpropham, chlorpropham], the “% DR (doubling rate: No. plants with pollen and silk/No. of plants left * 100)” value ([1]; seedling soak, rate 5 μM) was 45.5%, the No. plants alive ([1]; seedling soak, rate 5 μM) was 16 and the No. plants dead ([1]; seedling soak, rate 5 μM) was 48. The “No. plants with pollen & silks” value ([1]; seedling soak, rate 5 μM) was 5, the “No. plants dead after TP” value [1, 8] was 0 and the No. plants alive ([1]; seedling soak, rate 25 μM) was 1. For the same compound, the No. plants dead ([1]; seedling soak, rate 25 μM) was 63, the “No. plants dead after TP” value [1, 9] was 0 and the No. plants alive ([1]; seedling soak, rate 125 μM) was 0. For the same compound, the No. plants dead ([1]; seedling soak, rate 125 μM) was 64, the “No. plants dead after TP” value [1, 10] was 0 and the “# plants dead after treatment” value ([2]; spray, rate 70 g ai/ha) was 0. The “# plants w/ pollen and silk” value ([2]; spray, rate 70 g ai/ha) was 9, the “% DR (doubling rate)” value ([2]; spray, rate 70 g ai/ha) was 40.9% and the “# plants dead after treatment” value ([2]; spray, rate 280 g ai/ha) was 1. For the same compound, the “# plants w/ pollen and silk” value ([2]; spray, rate 280 g ai/ha) was 18 and the “% DR (doubling rate)” value ([2]; spray, rate 280 g ai/ha) was 58.1%.

In the case of `COc1cc2c(c(OC)c1OC)-c1ccc(OC)c(=O)cc1[C@@H](NC(C)=O)CC2` [Colchicine, colchicine], the “oral LD50 (rat)” value [7] is listed as 5.89 mg/kg, the mortality rate ([1]; seedling soak, colchicine treatment at 0.06% w/v) is listed as 41.5% and the “% DR (doubling rate: No. plants with pollen and silk/No. of plants left * 100)” value [1, 11] is listed as 53.3%. The No. plants alive [1, 11] was 38, the No. plants dead [1, 11] was 27 and the “No. plants dead after TP” value [1, 11] was 0. The “No. plants with pollen & silks” value [1, 11] was 16, the “% haploid maize plants pollinated” value ([6]; 0.06% colchicine) was 55.68% and the “plants that had doubled haploid ears” value ([6]; 0.06% w/v colchicine, of about 49 haploid plants pollinated) was “about 38”.

— patent US20110154529A1, “INDUCED CHROMOSOME DOUBLING IN PLANTS” (DOW AGROSCIENCES LLC, priority 2009, published 2011)
